According to patent publication US20210128596A1, “COMPOSITIONS AND METHODS FOR TREATING SEPTIC CARDIOMYOPATHY” (UNIVERSITY OF PENNSYLVANIA, priority 2017, published 2021):
Entries after “also recorded” stand apart in the source; their conditions may differ.

Columns and labels:
IκBα = experiment: Phosphorylated and total IkBα immunoblot, ventricular tissue; assay type: in vivo, mouse; settings: ventricular tissue 12 hours post-surgery
Protocol: (§1) Protein purification and analysis—Isolated heart tissue or AC16 cells were homogenized in radioimmune precipitation assay buffer containing protease and phosphatase inhibitors (Pierce Protease and Phosphatase Inhibitor Mini Tablets, Thermo Scientific). 30-50 μg of total protein extract was applied to SDS-PAGE and transferred onto nitrocellulose membranes.

[1] = tested on: ventricular tissue of septic mice; experiment: Mitochondrial biogenesis, fusion and fission gene expression in ventricular tissue; assay type: in vivo, mouse
Protocol: (§2) RNA purification and gene expression analysis—Total RNA was purified from AC16 cells or hearts using the TRIzol reagent according to the instructions of the manufacturer (Invitrogen). DNase-treated RNA was used for cDNA synthesis using the ProtoScript II First Strand cDNA Synthesis Kit (New England Biolabs). Quantitative real-time PCR was performed with the Sybr Select Master Mix (Applied Biosystems). Incorporation of the SYBR green dye into the PCR products was monitored with the Applied Biosystems StepOnePlus Real-Time PCR System. Samples were normalized against mouse 36B4 or human rps13 RNA.

AC16 cells [2] = experiment: mRNA levels of fusion and fission markers, quantitative PCR, LPS; assay type: cell-based, human
Protocol: AC16 cells were either left untreated or treated with Liposaccharide (LPS) in the absence or presence of SDG; the levels of DRP1, Opa, MFN1, MFN2, and FIS1 mRNAs were measured in quantitative PCR.
as §2

C57BL/6 mice = experiment: In vivo cardiac adrenergic sensitivity (hemodynamics, isoproterenol); design: species or system mouse; settings: 12 h post-CLP, LGM2605 6 h post-CLP
Protocol: In vivo cardiac adrenergic sensitivity measurements—Hemodynamics measurements were performed, as published^21. Mice were anesthetized with 2% Tribromoethanol (Avertin). The right carotid artery was cannulated with a 1.4 French micro-manometer (Millar Instruments, Houston, Tex.) and was advanced into LV cavity, measuring LV pressure, LV end-diastolic pressure (LVEDP) and heart rate (HR). These parameters as well as maximal values of the instantaneous first derivative of LV pressure (+dP/dtmax, as a measure of cardiac contractility) and minimum values of the instantaneous first derivative of LV pressure (−dP/dtmin, as a measure of cardiac relaxation) were recorded at baseline and after administration, through the jugular vein, of increasing doses of the β-adrenergic receptor (βAR) agonist, isoproterenol (0.1 ng, 0.5 ng, 1 ng, 5 ng, 10 ng). Data was recorded and analyzed on a PowerLab System (AD Instruments).

IL-1α, IL-1β, IL-6, TNFα = experiment: Cardiac mRNA expression of inflammatory cytokines; assay type: in vivo, mouse; settings: 6 hours or 12 hours post-CLP
Protocol: as §2

MCU and MICU1 [3] = experiment: MCU and MICU1 expression in heart tissue of CLP mice; assay type: in vivo, mouse
Protocol: Mice were either sham treated (n=3) or subjected to cecal ligation puncture (CLP, n=6). SDG was administered to three mice following CLP.
as §2, §1

AC16 cells [4] = experiment: Mitochondrial superoxide (MitoSOX Red) in LPS-treated AC16 cells; assay type: cell-based, human; settings: LPS 12 h with SDG/LGM2605 (50 μM)
Protocol: AC16 cells were either left untreated or treated for 12 hours with Liposaccharide (LPS) in the absence or presence of SDG, and subsequently stained with mitosox red.
Measurement of mitochondrial superoxide, mitochondrial membrane potential and mitochondrial number—AC16 cells were cultured in sterile cell culture dishware at approximately 80% confluence. After overnight incubation, cells were treated with LPS (1 μg/ml), LPS and LGM2605 (50 μM). LPS and LGM2605 were diluted in serum free media and the control group was incubated as well with serum free media. At 12 hours after the treatment the AC16 cells were loaded with mitochondrial superoxide indicator MitoSOX Red (5 μM, M36008, Molecular Probes) and incubated for 30 minutes in the dark. Excess MitoSOX Red was removed following three washes with PBS solution. MitoSOX Red fluorescence was recorded at 510 (excitation) and 580 nm (emission).

[5] = Plasma glucose and triglyceride levels in septic mice; assay type: in vivo, mouse
[6] = tested on: ventricular tissue of septic mice; experiment: DHE staining of cardiac tissue (ROS); assay type: in vivo, mouse; settings: ventricular tissue 12 hours post-CLP, LGM2605 6 h post-CLP
Protocol: DHE staining of cardiac tissue—Live myocardium was isolated from mice 12 hours after surgery and sectioned into 10 sections using a clean razor blade. Tissue was stained with 20 μM dihydroethidium (DHE) for 30 minutes at room temperature and imaged on a Zeiss Axio Observer Z1 fluorescent microscope at 490±10 nm excitation and 632±30 nm emission. Oxidized DHE fluoresces red and intercalates DNA. Individual nuclei were measured within each visual field using Zeiss Zen Blue software, and visual fields were averaged to measure mean fluorescence intensity for each mouse.

[7] = tested on: ventricular tissue of septic mice; experiment: Glucose and fatty-acid metabolism related gene expression in ventricular tissue; assay type: in vivo, mouse
Protocol: as §2

β adrenergic receptors = experiment: Radioligand binding assay for cardiac β-AR density; assay type: in vivo, mouse; settings: hearts 12 h post-CLP, LGM2605 6 h post-CLP
Protocol: Radioligand binding assay—Plasma membranes from excised mouse hearts were prepared, and saturation radio-ligand binding was performed as described previously, using ^125I-CYP (iodocyanopindolol; PerkinElmer, Waltham, Mass.) for β-AR density measurement. Data were analyzed by nonlinear regression analysis using GraphPad Prism (GraphPad Software, La Jolla, Calif.).

MCU and MICU1 [8] = experiment: MCU and MICU1 mRNA and protein levels after LPS; assay type: in vivo, mouse; settings: LPS with SDG
Protocol: Mice were either sham treated or treated with LPS in with or without SDG (n=3 for each group) and the levels of MCU and MICU1 mRNAs were measured in quantitative PCR while the levels of protein were assessed through western blot.
as §2, §1

AC16 cells [9] = experiment: Mitochondrial number (Mitotracker Red) in LPS-treated AC16 cells; assay type: cell-based, human
Protocol: AC16 cells were either left untreated or treated for 12 hours with Liposaccharide (LPS) in the absence or presence of SDG, and mitochondria were stained.
To assess changes in the mitochondrial number, LPS stimulated AC16 cells and adult cardiomyocytes isolated 12 hours post-CLP were stained with 200 nM Mitotracker Red (M22425, Molecular Probes), and incubated for 30 minutes in the dark. Excess Mitotracker Red was removed with three washed of PBS solution. Mitotracker Red fluorescence was recorded at 581 (excitation) and 644 nm (emission).

[10] = ventricular tissue 12 hours after CLP

Compound: COc1cc(C[C@@H](CO[C@@H]2O[C@H](CO)[C@@H](O)[C@H](O)[C@H]2O)[C@H](CO[C@@H]2O[C@H](CO)[C@@H](O)[C@H](O)[C@H]2O)Cc2ccc(O)c(OC)c2)ccc1O [LGM2605, secoisolariciresinol diglucoside]
- phosphorylation of IκBα (IκBα): prevented by LGM2605
- mitochondrial biogenesis markers PGC1α, PGC1β, mtTFA gene expression ([1]; ventricular tissue 12 hours post-CLP): None of these changes was affected by LGM2605
- MFN1, MFN2, DRP1, and FIS1 expression ([1]; ventricular tissue 12 hrs after CLP): restored the CLP-mediated changes in MFN1, MFN2, DRP1, and FIS1 expression
- levels of DRP1, Opa, MFN1, MFN2, and FIS1 mRNAs (AC16 cells [2]; 6-hour LPS treatment (FIG. 8A)): restored the levels of all the markers
- levels of DRP1, Opa, MFN1, MFN2, and FIS1 mRNAs (AC16 cells [2]; 12 hour LPS treatment (FIG. 8B)): restored the levels of all the markers, although only the change in MFN2 levels was statistically significant
- responsiveness to isoproterenol (C57BL/6 mice): less robust in both septic groups regardless of LGM2605 treatment
- basal LVdP/dtmax and LVdP/dtmin (C57BL/6 mice; compared to sham surgery): lower basal myocardial LVdP/dtmax (FIG. 14B) and LVdP/dtmin (FIG. 14C) with or without LGM2605 administration
- cardiac mRNA levels of IL-1α, IL-1β, IL-6, and TNFα (IL-1α, IL-1β, IL-6, TNFα): did not reduce mRNA levels
- MCU protein level (western blot) (MCU and MICU1 [3]; heart tissue, SDG following CLP, listed as SDG): increases MCU protein level; also recorded: increased protein expression of the mitochondrial calcium uniporter
- MCU and MICU1 mRNA and protein expression (MCU and MICU1 [3]; ventricular tissue 12 hours post-CLP, LGM2605 6 hrs post-CLP): did not affect expression of these proteins
- mitochondrial superoxide levels (Mitosox Red staining) (AC16 cells [4]): suppressed by LGM2605
- mitochondrial superoxide levels (Mitosox Red staining) (AC16 cells [4]; listed as SDG): statistically significant decrease in superoxide levels in LPS-treated cells; also recorded: lower mitosox red staining
- plasma glucose levels ([5]; 6 hours and 12 hours post-CLP): hypoglycemia in septic mice was not alleviated by the administration of LGM2605
- plasma triglyceride levels ([5]; 12 hours after surgery): trend of increase, which did not occur in septic mice treated with LGM2605
- ROS accumulation (DHE staining intensity) [6]: alleviated significantly by LGM2605 administration
- ROS accumulation (DHE staining intensity) ([6]; listed as SDG): reduced ROS accumulation
- expression of fatty acid oxidation and glucose metabolism-related genes ([7]; CLP mice treated with SDG): did not restore the expression of fatty acid oxidation and glucose metabolism-related genes
- PPARα and LCAD expression [7, 10]: did not reverse the CLP-mediated changes in the PPARα and LCAD
- cardiac PDK4 mRNA levels [7, 10]: This increase was not alleviated by administration of LGM2605
- cardiac β-AR density (β adrenergic receptors): not reversed by treatment with LGM2605
- MCU and MICU1 mRNA levels (MCU and MICU1 [8]): restored mRNA expression
- MCU protein level (western blot) (MCU and MICU1 [8]): reverses the LPS-mediated decrease of MCU protein level
- MICU1 protein level (western blot) (MCU and MICU1 [8]): increases MICU1 protein level
- number of mitochondria (Mitotracker) (AC16 cells [9]; LPS 12 h with SDG/LGM2605): prevented by treatment with LGM2605
- number of mitochondria (Mitotracker) (AC16 cells [9]; LPS 12 h with SDG/LGM2605, listed as SDG): more than compensated for this LPS-dependent drop; also recorded: restored mitochondrial abundance in vitro and in vivo
